“Also recorded” adds a separate entry of the source.
How the values were obtained:
BxPC3 = assay: Sensitivity of pancreatic adenocarcinoma cells to drug treatment (cell proliferation, apoptosis); type: cell-based, human
Procedure: (§1) Human pancreatic adenocarcinoma cell lines HPAC, SW1990, Mpanc-96, SU86.86, PL45, Panc10.05 Panc2.03 and Panc8.13 were obtained from ATCC; cell lines MiaPaCa2, Panc1, CFPAC-1, HPAFII, Capan-2, AsPC1, Hs766T and BxPC3 were a gift from Schering Plough; cell lines COLO357, L3.3, L3.6 pl and L3.6 sl were a gift from I. Fidler; cell lines Panc3.27, Panc4.21, Panc5.04, Panc2.13, Panc1.28 and Panc6.03 were a gift from E. Jaffee. BxPC3 and the Panc cell lines were grown in RPMI medium (Gibco) supplemented with 10% FBS, L-glutamine and penicillin/streptomycin; medium for the Panc cells was also supplemented with insulin-transferrin-selenium (Gibco). The CFPAC-1, Panc1, AsPC1, Hs766T, L3.6sl and L3.6pl were grown in DMEM without phenol red (CellGro), supplemented with 10% FBS. Derivation and culture of PDC cells was as described (Schreiber et al., Gastroenterology, 127:250-260, 2004).
(§2) The small chemical inhibitors were used at the following final concentrations: up to 250 μM for sulindac (Sigma), up to 300 μM for sulindac sulfone (Calbiochem or ICN), NS-398 up to 25 μM (Calbiochem), sodium salicylate up to 100 μM (Calbiochem). […] To test for drug sensitivity, the cells were plated in control medium or in medium containing the drug of interest for 2 to 5 days. The culture media was changed every 48 hrs. The images showing cell morphology were taken with a Nikon inverted microscope.
(§3) Cells were pulsed with 10 μM BrdU for two hours and then harvested and fixed. BrdU incorporation was detected with a fluorescein isothiocyanate conjugated anti-BrdU antibody (BD Biosciences) and total DNA was stained with 7-AAD (BD Biosciences). FACS analysis was performed according to the BD Biosciences BrdU flow kit manual. Cells in S-phase were defined as the BrdU-positive cell population with a DNA content between 2N and 4N. According to the manual, apoptotic cells were defined as a subpopulation of G0/G1 cells with DNA content lower than the diploid amount (<2N).

L3.6sl = assay: as above; type: cell-based, human
Procedure: as §1, §2, §3

Panc4.21 = assay: as above; type: cell-based, human
Procedure: as §1, §2, §3

L3.6pl = assay: Sensitivity of pancreatic adenocarcinoma cells to drug treatment (cell proliferation); type: cell-based, human; conditions: reduction in cell proliferation
Procedure: (§4) The culture media was changed every 48 hrs.
as §3

Panc2.03 = assay: as above; type: cell-based, human; conditions: reduction in cell proliferation
Procedure: as §4, §3

Panc3.27 = assay: as above; type: cell-based, human; conditions: reduction in cell proliferation
Procedure: as §4, §3

Panc6.03 = assay: as above; type: cell-based, human; conditions: reduction in cell proliferation
Procedure: as §4, §3

[1] = test system: pancreatic adenocarcinoma cell lines; assay: Growth, BrdU incorporation and apoptosis of pancreatic cancer cell lines (results stated for the lines together); type: cell-based, human; conditions: 7/13 lines
Procedure: as §2, §3
The cell lines were plated the day prior to transfection at a density of 8×10^4 cells/well in a 24-well plate. The luciferase reporter constructs used included: Top-Flash and Fop-Flash containing multimerized Tcf-Lef binding sites or nonfunctional sites, respectively; TK-Luc (Promega); and GliBS containing 8×Gli binding sites upstream of the TK minimal promoter (Sasaki et al., Development, 124:1313-1322, 1997). In different experiments, the reporter constructs were co-transfected with an expression vector containing a dominant-negative form of Lef1 or the endogenous Wnt inhibitor Icat. The dominant negative Lef1 (gift from S. Pleasure) was generated by cloning the 63 amino acid N-terminal deleted form of Lef1 into the pEF5 plasmid. This construct also contains an IRES-EGFP cassette. The cDNA coding for the Icat protein was cloned into pIRES2-EGFP (BD Biosciences Clontech). Transfections were performed using the Effectene transfection reagent […] according to the user's manual. A Renilla luciferase plasmid (Promega) was included to control for transfection efficiency. Transfected cells were cultured in medium containing serum. […] Cells were harvested 24 hrs after transfection, and luciferase activity was assayed using the Dual Luciferase kit (Promega), according to the user's manual.
Small interfering RNA (siRNA) oligonucleotides against β-catenin containing two thymidine residues (dTdT) at the 3′ end of the sequence (5′-[…] […] T-3′ set forth as SEQ ID NO:57) were used for treatment of cancer cells as described (Verma et al., Clin Cancer Res, 9:1291-1300, 2003). The GLI1 siRNA (sense 5′-[…] […]-3′ set forth as SEQ ID NO:58) was also used as described (Sanchez et al., Proc Natl Acad Sci USA 101:12561-12566, 2004). Small interfering RNA against GLI2 was ordered against the target sequence 5-[…] […] A-3′, set forth as SEQ ID NO:59). […] Cells were transfected with oligofectamine (Invitrogen) according to the user's manual, with a final siRNA concentration of 100 or 300 nM. Transfected cells were incubated for 48 hrs before harvesting.

[2] = test system: Hedgehog signaling (GliBS-luc reporter); assay: GliBS-luciferase reporter assay; type: cell-based, human; conditions: CFPAC-1, BxPC3, L3.6sl, Panc4.21; cyclopamine 10 μM, sulindac 250 μM; FIG. 4B
Procedure: The cell lines were plated the day prior to transfection at a density of 8×10^4 cells/well in a 24-well plate. The luciferase reporter constructs used included: Top-Flash and Fop-Flash containing multimerized Tcf-Lef binding sites or nonfunctional sites, respectively; TK-Luc (Promega); and GliBS containing 8×Gli binding sites upstream of the TK minimal promoter (Sasaki et al., Development, 124:1313-1322, 1997). In different experiments, the reporter constructs were co-transfected with an expression vector containing a dominant-negative form of Lef1 or the endogenous Wnt inhibitor Icat. The dominant negative Lef1 (gift from S. Pleasure) was generated by cloning the 63 amino acid N-terminal deleted form of Lef1 into the pEF5 plasmid. This construct also contains an IRES-EGFP cassette. The cDNA coding for the Icat protein was cloned into pIRES2-EGFP (BD Biosciences Clontech). Transfections were performed using the Effectene transfection reagent […] according to the user's manual. A Renilla luciferase plasmid (Promega) was included to control for transfection efficiency. Transfected cells were cultured in medium containing serum. […] Cells were harvested 24 hrs after transfection, and luciferase activity was assayed using the Dual Luciferase kit (Promega), according to the user's manual. […]

L3.6sl tumors = assay: Subcutaneous tumor treatment in nude mice; type: in vivo, CD-1 nude mice
Procedure: A total of 0.1 ml Hanks' balanced salt solution and matrigel (1:1) containing 2×10^6 cells was injected subcutaneously into CD-1 nude mice (Charles River Laboratories). Tumors were grown for 4 days to a minimum volume of 125 mm^3. Treatment was initiated simultaneously for all subjects. Mice were injected with vector alone (peanut oil: PBS 7:3 v/v) or with a sulindac solution (3 mg/mouse/day) daily for 5 days. Sulindac sulfone was administered orally (1.5 mg/mouse/day). At the end of the treatment period, tumors were excised from mice, weighed and photographed.
Individual or combined treatment was initiated after tumors were palpable.

[3] = reduction in cell proliferation

Which induced apoptosis (BxPC3; concentration dependent) does the source give for `CC1=C(CC(=O)O)c2cc(F)ccc2/C1=C\c1ccc([S+](C)[O-])cc1` (centres unmarked) [sulindac] here?
The induced apoptosis was “two to four-fold”.

And the “Sulindac Sensitivity” value (BxPC3; [3])?
The value was “Positive”.

And the cell growth (BxPC3; vs untreated controls, FIG. 3B)?
Its cell growth is “strongly inhibits growth”.

And the induced apoptosis (L3.6sl; concentration dependent)?
The induced apoptosis was “two to four-fold”.

What about the “Sulindac Sensitivity” value (L3.6sl; [3]) of the same compound?
Its value is “Positive”.

And the cell growth (L3.6sl; vs untreated controls, FIG. 3B)?
Its cell growth is “strongly inhibits growth”.

And the induced apoptosis (Panc4.21; concentration dependent)?
Its induced apoptosis is “two to four-fold”.

And the “Sulindac Sensitivity” value (Panc4.21; [3])?
The value was “Positive”.

And the cell growth (Panc4.21; vs untreated controls, FIG. 3B)?
Its cell growth is “strongly inhibits growth”.

What about the “Sulindac Sensitivity” value (L3.6pl) of the same compound?
Its value is “Positive”.

And the “Sulindac Sensitivity” value (Panc2.03)?
Its value is “Positive”.

And the “Sulindac Sensitivity” value (Panc3.27)?
Its value is “Positive”.

And the “Sulindac Sensitivity” value (Panc6.03)?
Its value is “Positive”.

And the “lines tested with measurable reduction in cell proliferation” value [1]?
Its value is 54%.

What about the “activity of the GliBS-luc Hedgehog reporter” value [2] of the same compound?
The value was “unaffected; also recorded: had no affect”.

And the “reduction in tumor volume compared to untreated samples” value (L3.6sl tumors; sulindac 3 mg/mouse/day injected daily for 5 days)?
The value was 80%.

And the tumor growth (L3.6sl tumors; treated for five days vs untreated controls, sulindac 3 mg/mouse/day injected, sulindac sulfone 1.5 mg/mouse/day orally)?
Its tumor growth is “strongly reduced”.
